Results as given in ChEMBL document CHEMBL4325868, “Design, synthesis and antitubercular activity of 4-alkoxy-triazoloquinolones able to inhibit the M. tuberculosis DNA gyrase” (Eur J Med Chem, 2019).
Values after ≈ are worked out from the molar mass of the structure shown.

What was measured:
Format in all cases: functional
[1] = test system: Mycobacterium tuberculosis; experiment: Antitubercular activity against multidrug resistant Mycobacterium tuberculosis isolate 512 after 7 days by resazurin microtiter assay; settings: isolate 512, 168 h
[2] = test system: Mycobacterium tuberculosis; experiment: Antitubercular activity against ciprofloxacin resistant Mycobacterium tuberculosis isolate 1670 after 7 days by resazurin microtiter assay; settings: isolate 1670, 168 h
[3] = test system: Mycobacterium tuberculosis; experiment: Antitubercular activity against ciprofloxacin resistant Mycobacterium tuberculosis isolate 600 after 7 days by resazurin microtiter assay; settings: isolate 600, 168 h
[4] = test system: Mycobacterium tuberculosis; experiment: Antitubercular activity against isoniazid/ethambutol resistant Mycobacterium tuberculosis isolate 368 after 7 days by resazurin microtiter assay; settings: isolate 368, 168 h
[5] = test system: Mycobacterium tuberculosis; experiment: Antitubercular activity against streptomycin resistant Mycobacterium tuberculosis isolate 203 after 7 days by resazurin microtiter assay; settings: isolate 203, 168 h
[6] = test system: Mycobacterium tuberculosis; experiment: Antitubercular activity against multidrug resistant Mycobacterium tuberculosis isolate 571 after 7 days by resazurin microtiter assay; settings: isolate 571, 168 h
[7] = test system: Mycobacterium tuberculosis; experiment: Antitubercular activity against rifampicin resistant Mycobacterium tuberculosis isolate 952 after 7 days by resazurin microtiter assay; settings: isolate 952, 168 h
[8] = test system: Mycobacterium tuberculosis; experiment: Antitubercular activity against rifampicin/ethambutol resistant Mycobacterium tuberculosis isolate 1726 after 7 days by resazurin microtiter assay; settings: isolate 1726, 168 h
[9] = test system: Mycobacterium tuberculosis; experiment: Antitubercular activity against multidrug resistant Mycobacterium tuberculosis isolate 1120 after 7 days by resazurin microtiter assay; settings: isolate 1120, 168 h
[10] = test system: Mycobacterium tuberculosis; experiment: Antitubercular activity against isoniazid resistant Mycobacterium tuberculosis isolate 1358 after 7 days by resazurin microtiter assay; settings: isolate 1358, 168 h
[11] = test system: Mycobacterium tuberculosis; experiment: Antitubercular activity against streptomycin/isoniazid/ethambutol resistant Mycobacterium tuberculosis isolate 1097 after 7 days by resazurin microtiter assay; settings: isolate 1097, 168 h
[12] = test system: Mycobacterium tuberculosis; experiment: Antitubercular activity against streptomycin resistant Mycobacterium tuberculosis isolate 157 after 7 days by resazurin microtiter assay; settings: isolate 157, 168 h
[13] = test system: Mycobacterium tuberculosis; experiment: Antitubercular activity against streptomycin resistant Mycobacterium tuberculosis isolate 204 after 7 days by resazurin microtiter assay; settings: isolate 204, 168 h
[14] = test system: Mycobacterium tuberculosis; experiment: Antitubercular activity against multidrug resistant Mycobacterium tuberculosis isolate 7 after 7 days by resazurin microtiter assay; settings: isolate 7, 168 h

| Structure (SMILES) | MIC [1] [µM] | MIC [2] [µM] | MIC [3] [µM] | MIC [4] [µM] | MIC [5] [µM] | MIC [6] [µM] | MIC [7] [µM] | MIC [8] [µM] | MIC [9] [µM] | MIC [10] [µM] | MIC [11] [µM] | MIC [12] [µM] | MIC [13] [µM] | MIC [14] [µM] |
| --- | --- | --- | --- | --- | --- | --- | --- | --- | --- | --- | --- | --- | --- | --- |
| O=C(O)c1cn(C2CC2)c2cc(N3CCNCC3)c(F)cc2c1=O [CIPROFLOXACIN] | 8 (≈ 2.65 µg/mL) | 16 (≈ 5.3 µg/mL) | 4 (≈ 1.33 µg/mL) |  |  |  |  |  |  |  |  |  |  |  |
| COc1cc2c(=O)c(C(=O)O)cn(C)c2c2nnn(C)c12 | 8 (≈ 2.31 µg/mL) | 16 (≈ 4.61 µg/mL) | 16 (≈ 4.61 µg/mL) | 8 (≈ 2.31 µg/mL) | 16 (≈ 4.61 µg/mL) | 16 (≈ 4.61 µg/mL) | 32 (≈ 9.22 µg/mL) | 16 (≈ 4.61 µg/mL) | 4 (≈ 1.15 µg/mL) | 16 (≈ 4.61 µg/mL) | 32 (≈ 9.22 µg/mL) | 8 (≈ 2.31 µg/mL) | 8 (≈ 2.31 µg/mL) | 4 (≈ 1.15 µg/mL) |
